{
  "source": "patent US8614216B2",
  "key": {"[1]": {"experiment": "physchem", "details": "23 °C, water, thermodynamic from solid"}, "[2]": {"experiment": "Dynamic vapor sorption (DVS) hygroscopicity experiment", "format": "physicochemical", "description": "All DVS measurements were carried out at 2.5% relative humidity change per hour."}, "[3]": {"experiment": "Compaction studies (Carver Press, tablet hardness tester)", "format": "physicochemical", "details": "200 mg at 5000 psi, 0.8 cm die", "description": "The resulting tensile strength and thickness of the compacts were measured using a VK 200 Tablet Hardness Tester and Mitutoyo thickness gauge."}, "[4]": {"experiment": "Solid state chemical stability, HPLC analysis", "format": "physicochemical", "details": "open flask", "text": "(§1) Samples were pulled at pre-determined time-points and analyzed for chemical stability."}, "[5]": {"experiment": "Solution state chemical stability, HPLC analysis", "format": "physicochemical", "details": "sealed vial", "text": "as §1"}, "[6]": {"experiment": "Moisture induced weight change in lactate salts", "format": "physicochemical", "details": "55% RH; listed as Lactate-trial 3"}, "[7]": {"experiment": "Physical stability of the amorphous form on storage"}},
  "data": [
    {"smiles": "CC(O)C(=O)O.CN1CCN(c2ccc3nc(-c4c(N)c5c(F)cccc5[nH]c4=O)[nH]c3c2)CC1", "note": "[Form A]", "values": [
      {"measurement": "solubility", "setting": "[1]", "value": "> 400", "unit": "mg/mL"},
      {"measurement": "Hygroscopicity in DVS experiment", "setting": "[2]; below about 80% r.h., 2.5% relative humidity change per hour", "value": "not hygroscopic"},
      {"measurement": "Water uptake in DVS experiment", "setting": "[2]; exposure to r.h. conditions above 90%", "value": "significant water uptake"},
      {"measurement": "Forms Compact", "setting": "[3]; listed as Lactate-trial 1", "value": "Yes"},
      {"measurement": "Tensile strength of compact", "setting": "[3]; listed as Lactate-trial 1", "value": 13.8, "unit": "SC—Strong Cobb"},
      {"measurement": "Thickness of compact", "setting": "[3]; listed as Lactate-trial 1", "value": 3.06, "unit": "mm"},
      {"measurement": "Forms Compact", "setting": "[3]; listed as Lactate-trial 2", "value": "Yes"},
      {"measurement": "Tensile strength of compact", "setting": "[3]; listed as Lactate-trial 2", "value": 17.9, "unit": "SC—Strong Cobb"},
      {"measurement": "Thickness of compact", "setting": "[3]; listed as Lactate-trial 2", "value": 2.92, "unit": "mm"},
      {"measurement": "Forms Compact", "setting": "[3]; listed as Lactate-trial 3", "value": "Yes"},
      {"measurement": "Tensile strength of compact", "setting": "[3]; listed as Lactate-trial 3", "value": 16.1, "unit": "SC—Strong Cobb"},
      {"measurement": "Thickness of compact", "setting": "[3]; listed as Lactate-trial 3", "value": 2.97, "unit": "mm"},
      {"measurement": "Forms Compact", "setting": "[3]; listed as lactate salt", "value": "forms strong compacts without a tendency to cap or chip"},
      {"measurement": "Area % at Time = 0", "setting": "[4]; 30° C./60% Relative humidity", "value": 98.41, "unit": "Area %"},
      {"measurement": "Area % at Time = 6 weeks", "setting": "[4]; 30° C./60% Relative humidity", "value": 99.04, "unit": "Area %"},
      {"measurement": "Area % at Time = 0", "setting": "[4]; 40° C./70% Relative humidity", "value": 98.46, "unit": "Area %"},
      {"measurement": "Area % at Time = 6 weeks", "setting": "[4]; 40° C./70% Relative humidity", "value": 98.55, "unit": "Area %"},
      {"measurement": "Area % at Time = 0", "setting": "[5]; 5° C.", "value": 98.80, "unit": "Area %"},
      {"measurement": "Area % at Time = 7 days", "setting": "[5]; 5° C.", "value": 98.60, "unit": "Area %"},
      {"measurement": "Area % at Time = 0", "setting": "[5]; ambient temperature", "value": 98.80, "unit": "Area %"},
      {"measurement": "Area % at Time = 7 days", "setting": "[5]; ambient temperature", "value": 98.71, "unit": "Area %"},
      {"measurement": "Moisture induced % weight change", "setting": "[6]", "value": 0.08, "unit": "%"}
    ]},
    {"smiles": "CN1CCN(c2ccc3nc(-c4c(N)c5c(F)cccc5[nH]c4=O)[nH]c3c2)CC1", "note": "[Bis-lactate]", "values": [
      {"measurement": "Area % at Time = 0", "setting": "[4]; 40° C./70% Relative humidity", "value": 98.99, "unit": "Area %"},
      {"measurement": "Area % at Time = 6 weeks", "setting": "[4]; 40° C./70% Relative humidity", "value": 97.92, "unit": "Area %"}
    ]},
    {"smiles": "CC(O)C(=O)O.CN1CCN(c2ccc3nc(-c4c(N)c5c(F)cccc5[nH]c4=O)[nH]c3c2)CC1", "note": "[amorphous form]", "values": [
      {"measurement": "Time stable", "setting": "[7]; 75% relative humidity and 40° C.", "value": "more than 2 days"},
      {"measurement": "Stability of the solid form", "setting": "[7]; ambient conditions", "value": "stable"}
    ]},
    {"smiles": "CN1CCN(c2ccc3nc(-c4c(N)c5c(F)cccc5[nH]c4=O)[nH]c3c2)CC1", "note": "[Free base]", "values": [
      {"measurement": "Area % at Time = 0", "setting": "[4]; 30° C./60% Relative humidity", "value": 97.38, "unit": "Area %"},
      {"measurement": "Area % at Time = 6 weeks", "setting": "[4]; 30° C./60% Relative humidity", "value": 97.83, "unit": "Area %"},
      {"measurement": "Area % at Time = 0", "setting": "[4]; 40° C./70% Relative humidity", "value": 97.77, "unit": "Area %"},
      {"measurement": "Area % at Time = 6 weeks", "setting": "[4]; 40° C./70% Relative humidity", "value": 98.23, "unit": "Area %"}
    ]}
  ]
}
